These results are taken from US20110300147A9, “Inhibiting tumor cell invasion, metastasis and angiogenesis” (The Scripps Research institute, priority 2005, published 2011).

For one series, the system named is 4T1 mammary carcinoma. The series is described as follows: primary 4T1 tumor and spontaneous lung metastasis model. The settings on record: AEPI-1 50 μg i.p. every two days for two weeks. In kind it is in vivo, BALB/c mice. On the procedure: Primary 4T1 tumors are generated by subcutaneous injection of 5×10^5 4T1 cells in the right flank of six-week-old BALB/c mice. Two different groups of four animals were treated between days 9 and 27 after tumor induction. The treatments were 100-μl […] injections of PBS alone (control group) or LEG-3 100 μg/100 μl in PBS by intraperitoneal injection every two days for two weeks. Tumor volumes of treated animals were measured every two-day starting on day 9 by microcaliper measurements (volume=width×length×width/2). As soon as the tumor volume reached 1400 mm^3 in the control groups (on day 30th), euthanasia was performed and lungs were removed and fixed in the Bouin's solution. Lung metastases were counted by anatomy microscope. Statistical significance between treatment groups was determined by two-tailed Student's t tests using Microsoft EXCEL software.
Tumor induction was performed by subcutaneous injection of 5×10^5 4T1 cells in the right flank mammary fat pat of six-week-old BALB/c mice. […] Tumor volumes of treated animals were measured everyday starting on day 6 by micro-caliper measurements (volume=width×length×width/2). […] Lung metastases were counted by anatomy microscope. The statistical significance between treatment and control groups was determined by two-tailed Student's t tests using Microsoft EXCEL software.

For the next series, the target named is T1, legumain (Mus musculus, UniProt O89017).
T1 construct: from tissue
T1 sequence (O89017 18-325): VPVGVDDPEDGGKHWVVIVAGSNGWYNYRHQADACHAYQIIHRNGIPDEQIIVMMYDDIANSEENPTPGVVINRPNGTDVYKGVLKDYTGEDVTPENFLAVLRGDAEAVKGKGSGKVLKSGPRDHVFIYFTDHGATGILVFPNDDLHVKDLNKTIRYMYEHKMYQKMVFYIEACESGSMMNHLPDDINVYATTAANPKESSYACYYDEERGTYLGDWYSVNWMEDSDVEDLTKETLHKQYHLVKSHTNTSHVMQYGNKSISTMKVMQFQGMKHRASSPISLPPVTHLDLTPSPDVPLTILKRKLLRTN
Put plainly: legumain activity in tissues after systemic administration of AEPI-1. The class given is in vivo, mice.

Each structure is given as a SMILES string.

Consider `CCOC(=O)C1OC1C(=O)N(CC(N)=O)NC(=O)[C@H](C)NC(=O)[C@H](C)NC(=O)OCc1ccccc1` (stereo partly drawn) [AEPI-1, Cbz-Ala-Ala-AzaAsn-(S,S)-EPCOOEt], for which, in the series on 4T1 mammary carcinoma, the “growth of 4T1 mammary carcinoma” value is listed as “inhibits the growth” and the spontaneous lung metastasis result was “inhibited spontaneous lung metastasis”. In addition, the cell permeability result on legumain (inferred from tumor vs kidney legumain activity) is “substantially impermeable to cells”. Moreover, at legumain (systemic administration), the “legumain activity in 4T1 tumors” value was “inhibited legumain activity in 4T1 tumors” and the “legumain activity in kidney” value was “does not affect”.
